This note sets out measurements from patent publication US9988390B2, “Pyrimidone derivatives and their use in the treatment, amelioration or prevention of a viral disease” (F. Hoffmann-La Roche AG, priority 2015, dated 2018).

Broadly, the IC50 is the concentration that gives 50% inhibition.

In the first assay the test system is influenza A virus (A/WSN/33 NanoLuc reporter virus) in A549 cells. As to the kind of experiment: microbe, parasite or virus in culture. In kind it is cell-based. Particulars: A549, 24 h, read-out: IC50 values of viral replication inhibition in a cell-based Luciferase Reporter Assay (LRA). Background: Reporter assays use an easily measured gene product as a stand-in for the process of interest.
In the case of `COc1nc(=O)c(O)c2n1[C@@H](C(c1ccc(F)cc1)c1ccc(F)cc1)CN(C(C)C)C2=O` [Ia-71, (4S)-4-[Bis(4-fluorophenyl)methyl]-9-hydroxy-2-isopropyl-6-methoxy-3,4-dihydropyrazino[1,2-c]pyrimidine-1,8-dione], the IC50 stood at 0.047 µM.

For `CC(C)N1C[C@H](C(c2ccccc2)c2ccccc2)n2c(NCc3ccccc3)nc(=O)c(O)c2C1=O` [Example 1a-1, (4S)-4-Benzhydryl-6-(benzylamino)-9-hydroxy-2-isopropyl-3,4-dihydropyrazino[1,2-c]pyrimidine-1,8-dione], the IC50 is 0.153 µM.

`CC(C)N1C[C@H](C2c3ccccc3CCc3ccccc32)n2c(O)nc(=O)c(O)c2C1=O` [Example 1a-10, (4S)-4-(10,11-Dihydro-5H-dibenzo[a,d][7]annulen-5-yl)-6,9-dihydroxy-2-(propan-2-yl)-3,4-dihydro-2H-pyrazino[1,2-c]pyrimidine-1,8-dione]: the IC50 worked out at 0.098 µM. As for `CSc1nc(=O)c(O)c2n1[C@@H](C(c1ccccc1)c1ccccc1)CN(C(C)C)C2=O` [Ia-23, (4S)-4-Benzhydryl-9-hydroxy-2-isopropyl-6-methylsulfanyl-3,4-dihydropyrazino[1,2-c]pyrimidine-1,8-dione], the concentration for half-maximal inhibition (IC50) is 0.036 µM.

Consider `CC(C)N1C[C@H](C(c2ccccc2)c2ccccc2)n2c(NC(C)C(F)(F)F)nc(=O)c(O)c2C1=O` (stereo partly drawn) [Ia-37, (4S)-4-Benzhydryl-9-hydroxy-2-isopropyl-6-[(2,2,2-trifluoro-1-methyl-ethyl)amino]-3,4-dihydropyrazino[1,2-c]pyrimidine-1,8-dione], for which the IC50 is 0.516 µM. The same measure, in the same setting: to `CC(C)N1C[C@H](C(c2ccccc2)c2ccccc2)n2c(c(O)c(=O)n(C)c2=O)C1=O` [Example 1b-1, (4S)-4-Benzhydryl-9-hydroxy-2-isopropyl-7-methyl-3,4-dihydropyrazino[1,2-c]pyrimidine-1,6,8-trione] belongs 1.66 µM; to `CCOc1nc(=O)c(O)c2n1[C@@H](C(c1ccccc1)c1ccccc1)CN(C(C)C)C2=O` [Example 1a-7, (4S)-4-Benzhydryl-6-ethoxy-9-hydroxy-2-isopropyl-3,4-dihydropyrazino[1,2-c]-pyrimidine-1,8-dione], 0.069 µM.

In the case of `C=Cc1nc(=O)c(O)c2n1C(C1c3ccccc3CCc3ccccc31)CN(C(C)C)C2=O` (stereo not drawn) [Ia-47, 4-(6,11-Dihydro-5H-dibenzo[2,1-b:1′,2′-e][7]annulen-11-yl)-9-hydroxy-2-isopropyl-6-vinyl-3,4-dihydropyrazino[1,2-c]pyrimidine-1,8-dione], the IC50 was 0.04 µM.

Regarding `CCOc1nc(=O)c(O)c2n1[C@@H](C1c3ccccc3CCc3ccccc31)CN(C(C)C)C2=O` [Example 1a-12, (4S)-4-(10,11-Dihydro-5H-dibenzo[a,d][7]annulen-5-yl)-6-ethoxy-9-hydroxy-2-(propan-2-yl)-3,4-dihydro-2H-pyrazino[1,2-c]pyrimidine-1,8-dione], the IC50 was 0.024 µM.

Regarding `CC(C)N1C[C@H](C(c2ccccc2)c2ccccc2)n2c(S)nc(=O)c(O)c2C1=O` [Ia-28, (4S)-4-benzhydryl-9-hydroxy-2-isopropyl-6-sulfanyl-3,4-dihydropyrazino[1,2-c]pyrimidine-1,8-dione], the half-maximal inhibitory concentration (IC50) amounted to 0.061 µM. On the same count and under the same terms, to `CC(C)N1C[C@H](C2c3ccccc3CCc3ccccc32)n2c([S+](C)[O-])nc(=O)c(O)c2C1=O` (stereo partly drawn) [Ia-31, (4S)-4-(6,11-Dihydro-5H-dibenzo[2,1-b:1′,2′-e][7]annulen-11-yl)-9-hydroxy-2-isopropyl-6-methylsulfinyl-3,4-dihydropyrazino[1,2-c]pyrimidine-1,8-dione] belongs 0.015 µM. As to `CC(C)N1C[C@H](C(c2ccccc2)c2ccccc2)n2c(CN)nc(=O)c(O)c2C1=O` [Ia-54, (4S)-6-(Aminomethyl)-4-benzhydryl-9-hydroxy-2-isopropyl-3,4-dihydropyrazino[1,2-c]pyrimidine-1,8-dione], the IC50 was 0.931 µM. The same measure, in the same setting: for `CC(C)N1C[C@H](C2c3ccccc3CCc3ccccc32)n2cnc(=O)c(O)c2C1=O` [Ia-29, (4S)-4-(6,11-Dihydro-5H-dibenzo[2,1-b:1′,2′-e][7]annulen-11-yl)-9-hydroxy-2-isopropyl-3,4-dihydropyrazino[1,2-c]pyrimidine-1,8-dione] the value was 0.022 µM; for `CC(C)N1C[C@H](C(c2ccccc2)c2ccccc2)n2c([S+](C)[O-])nc(=O)c(O)c2C1=O` (stereo partly drawn) [Ia-26, (4S)-4-Benzhydryl-9-hydroxy-2-isopropyl-6-methylsulfinyl-3,4-dihydropyrazino[1,2-c]pyrimidine-1,8-dione], 0.127 µM; for `CC(C)N1C[C@H](C(c2ccccc2)c2ccccc2)n2cnc(=O)c(O)c2C1=O` [Ia-27, (4S)-4-Benzhydryl-9-hydroxy-2-isopropyl-3,4-dihydropyrazino[1,2-c]pyrimidine-1,8-dione], 0.232 µM. Same read-out and setting: to `CNc1nc(=O)c(O)c2n1[C@@H](C(c1ccccc1)c1ccccc1)CN(C(C)C)C2=O` [Ia-49, (4S)-4-Benzhydryl-9-hydroxy-2-isopropyl-6-(methylamino)-3,4-dihydropyrazino[1,2-c]pyrimidine-1,8-dione] belongs 0.88 µM; to `COc1nc(=O)c(O)c2n1[C@@H](C1c3cccc(F)c3CCc3c(F)cccc31)[C@H](C)N(C)C2=O` [Example 1a-21, (3S,4S)-4-(1,9-Difluoro-10,11-dihydro-5H-dibenzo[a,d][7]annulen-5-yl)-9-hydroxy-6-methoxy-2,3-dimethyl-3,4-dihydro-2H-pyrazino[1,2-c]pyrimidine-1,8-dione], 0.015 µM. The same measure, in the same setting: for `CC(C)N1C[C@H](C(c2ccccc2)c2ccccc2)n2c(c(O)c(=O)n(Cc3ccccc3)c2=O)C1=O` [Example 1b-2, (4S)-4-Benzhydryl-7-benzyl-9-hydroxy-2-isopropyl-3,4-dihydropyrazino[1,2-c]pyrimidine-1,6,8-trione] the value was 4.3 µM. `CC(C)N1C[C@H](C2c3ccccc3CCc3ccccc32)n2c(NCC(F)(F)F)nc(=O)c(O)c2C1=O` [Ia-34, (4S)-4-(6,11-Dihydro-5H-dibenzo[2,1-b:1′,2′-e][7]annulen-11-yl)-9-hydroxy-2-isopropyl-6-(2,2,2-trifluoroethylamino)-3,4-dihydropyrazino[1,2-c]pyrimidine-1,8-dione]: the IC50 was 0.05 µM. Consider `COc1nc(=O)c(O)c2n1C(C(c1ccc(Cl)cc1)c1ccc(Cl)cc1)CN(C(C)C)C2=O` (stereo not drawn) [Ia-63, 4-[Bis(4-chlorophenyl)methyl]-9-hydroxy-2-isopropyl-6-methoxy-3,4-dihydropyrazino[1,2-c]pyrimidine-1,8-dione], for which the IC50 worked out at 0.302 µM. On the same count and under the same terms, to `CC(C)N1C[C@H](C(c2ccccc2)c2ccccc2)n2c(-n3ccnc3)nc(=O)c(O)c2C1=O` [Ia-43, (4S)-4-Benzhydryl-9-hydroxy-6-imidazol-1-yl-2-isopropyl-3,4-dihydropyrazino[1,2-c]pyrimidine-1,8-dione] belongs 0.495 µM; to `CCSc1nc(=O)c(O)c2n1[C@@H](C(c1ccccc1)c1ccccc1)CN(C(C)C)C2=O` [Ia-24, (4S)-4-Benzhydryl-6-ethylsulfanyl-9-hydroxy-2-isopropyl-3,4-dihydropyrazino[1,2-c]pyrimidine-1,8-dione], 11.9 µM. `CC(C)N1C[C@H](C(c2ccccc2)c2ccccc2)n2c(-c3ccccc3)nc(=O)c(O)c2C1=O` [Ia-42, (4S)-4-benzhydryl-9-hydroxy-2-isopropyl-6-phenyl-3,4-dihydropyrazino[1,2-c]pyrimidine-1,8-dione]: the 50% inhibitory concentration (IC50) was 0.126 µM. On the same count and under the same terms, for `Cc1nc(=O)c(O)c2n1[C@@H](C(c1ccccc1)c1ccccc1)CN(C(C)C)C2=O` [Ia-40, (4S)-4-Benzhydryl-9-hydroxy-2-isopropyl-6-methyl-3,4-dihydropyrazino[1,2-c]pyrimidine-1,8-dione] the value was 0.119 µM. Same read-out and setting: to `CCc1nc(=O)c(O)c2n1[C@@H](C(c1ccccc1)c1ccccc1)CN(C(C)C)C2=O` [Ia-41, (4S)-4-Benzhydryl-6-ethyl-9-hydroxy-2-isopropyl-3,4-dihydropyrazino[1,2-c]pyrimidine-1,8-dione] belongs 0.077 µM. On the same count and under the same terms, for `CNC(=N)Nc1nc(=O)c(O)c2n1[C@@H](C(c1ccccc1)c1ccccc1)CN(C(C)C)C2=O` [Ia-50, 1-[(4S)-4-Benzhydryl-9-hydroxy-2-isopropyl-1,8-dioxo-3,4-dihydropyrazino[1,2-c]pyrimidin-6-yl]-3-methyl-guanidine] the value was 1.07 µM; for `CC(C)N1C[C@H](C(c2ccccc2)c2ccccc2)n2c(C#N)nc(=O)c(O)c2C1=O` [Ia-51, (4S)-4-Benzhydryl-9-hydroxy-2-isopropyl-1,8-dioxo-3,4-dihydropyrazino[1,2-c]pyrimidine-6-carbonitrile], 0.368 µM.

For the molecule `CN1C[C@H](C2c3ccccc3CCc3ccccc32)n2c(O)nc(=O)c(O)c2C1=O` [Example 1a-11, (4S)-4-(10,11-Dihydro-5H-dibenzo[a,d][7]annulen-5-yl)-6,9-dihydroxy-2-methyl-3,4-dihydro-2H-pyrazino[1,2-c]pyrimidine-1,8-dione], the IC50 came to 0.128 µM. Consider `CC(C)N1C[C@H](C(c2ccccc2)c2ccccc2)n2c(OCc3ccccc3)nc(=O)c(O)c2C1=O` [Example 1a-13, (4S)-4-Benzhydryl-6-benzyloxy-9-hydroxy-2-isopropyl-3,4-dihydropyrazino[1,2-c]pyrimidine-1,8-dione], for which the IC50 came out at 8.32 µM. Still for that read-out and setting: to `CCS(=O)(=O)c1nc(=O)c(O)c2n1[C@@H](C(c1ccccc1)c1ccccc1)CN(C(C)C)C2=O` [Ia-39, (4S)-4-Benzhydryl-6-ethylsulfonyl-9-hydroxy-2-isopropyl-3,4-dihydropyrazino[1,2-c]pyrimidine-1,8-dione] belongs 0.47 µM.

The same assay, now with this note: A549, isomers identified by X-ray analysis, read-out: IC50.
For `COc1nc(=O)c(O)c2n1[C@@H]([C@H]1c3ccccc3CSc3ccccc31)CN(C(C)C)C2=O` (single isomer, unassigned) [Example 14], the IC50 came out at 0.002 µM.

In the case of `COc1nc(=O)c(O)c2n1[C@H]([C@@H]1c3ccccc3CSc3ccccc31)CN(C(C)C)C2=O` (single isomer, unassigned) [Example 15], the IC50 came out at 0.034 µM.

As to `COc1nc(=O)c(O)c2n1[C@@H]([C@@H]1c3ccccc3CSc3ccccc31)CN(C(C)C)C2=O` (single isomer, unassigned) [Example 16], the IC50 was 0.004 µM.
